From US20230141718A1, “METHODS OF TREATING GLIOBLASTOMA” (CELGENE QUANTICEL RESEARCH, INC., priority 2021, published 2023)

Tests used:
[1] = test system: HEXIM1 (hexamethylene bis-acetamide-inducible protein 1) mRNA; experiment: Blood and tumor HEXIM1 mRNA pharmacodynamics, CC-90010-GBM-001; format: in vivo, human
Protocol: The primary objectives of the study in this example were determination of tumor tissue concentration and plasma pharmacokinetics (PK) of Compound A. The secondary and exploratory objectives included safety, antitumor activity, cerebrospinal fluid concentration, and pharmacodynamics (PD).
Patients were treated with Compound A at 30 mg daily on Day 1 to Day 4 prior to undergoing indicated tumor resection and to maintain platelet count above the minimum of […] recommended for surgery (Part A, preoperative treatment). Following recovery from surgery and a minimum of 4 weeks from the first dose of Compound A, subjects who were fit to continue were treated with Compound A at 45 mg on a 4 days on/24 days off schedule (180 mg per 28-day cycle). Maintenance treatment continued until disease progression, unacceptable toxicity, or withdrawal of consent.
Blood HEXIM1 (hexamethylene bis-acetamide-inducible protein 1) mRNA was increased at 72-96 hours following first dose, and the percentage increase correlated with plasma concentration of Compound A at surgery. Tumor HEXIM1 RNA increased in 10 of 11 patients. Additionally, blood HEXIM1 mRNA expression was increased in all subjects at 72-96 hours following the first dose. Percentage HEXIM1 increase was related to plasma Compound A concentration at biopsy.

[2] = Safety (TRAEs/TEAEs), CC-90010-GBM-002 Parts A and B; format: in vivo
Excerpt: This was then followed by a break in treatment therapy, e.g., from 1 to up to 4 weeks. […] Adjuvant therapy cycles were repeated from 2 to 6 times. After adjuvant therapy, was a monotherapy treatment.
The demographics and characteristics of treated patients are described in the below table.

newly diagnosed GBM = experiment: Efficacy (duration of treatment, PFS, best overall response), CC-90010-GBM-002 Part A; format: in vivo, human
Excerpt: The Response Assessment in Neuro-Oncology criteria (RANO) is used to assess response to first-line treatment of glioblastoma. See, Leao, D. J. et al., American Journal of Neuroradiology 2019, 1-11. The RANO criteria divides response into four types of response based on imaging (MRI) and clinical features: (1) complete response (CR); (2) partial response (PR); (3) stable disease (SD); and (4) progression. For this assessment, a measurable disease is defined as bidimensional contrast-enhancing lesions with clearly defined margins, with 2 perpendicular diameters of at least 10 mm, visible on ≥2 axial slices. The nonmeasurable disease is defined as either unidimensional measurable lesions, masses with margins not clearly defined as frequently noted in the surgical margins, or lesions with maximal perpendicular diameters of <10 mm.
The study described in this example (CC-90010-GBM-002/NCT04324840) is a phase 1B dose-finding study investigating standard of care of Compound A in combination with TMZ with or without radiotherapy (RT) in subjects with newly diagnosed GBM. Part A of the study is escalating the oral doses of Compound A in combination with adjuvant TMZ to estimate the MTD and/or the RP2D of Compound A as adjuvant therapy and escalating the oral doses of Compound A in combination with concomitant TMZ+radiotherapy (RT) to estimate the MTD and/or the RP2D of Compound A as concomitant therapy. Part B of the study is the safety and efficacy of Compound A administered at or below the MTD determined for the adjuvant therapy (AT) and concomitant therapy (CT).
For adjuvant therapy, Compound A and TMZ was administered for 6 cycles, then Compound A as a monotherapy was administered in 28-day cycles until disease progression, start of a new anticancer therapy, or withdrawal of consent or physician's decision. For adjuvant therapy, Compound A was administered at 15, 30, and 45 mg 4 days on/24 days off and TMZ was administered at 150 or 200 mg/m^2 QD Days 1-5, followed by Compound A at 45 mg 4 days on/24 days off. For adjuvant therapy, part B, Compound A was administered at RP2D and TMZ was administered at 150 or 200 mg/m^2, followed by Compound A at 45 mg 4 days on/24 days off.
For concomitant therapy, Compound A, TMZ, and RT were administered for 6 weeks, then 4-week break, followed by adjuvant Compound A and TMZ for 6 cycles then Compound A monotherapy in 28-day cycles until disease progression, start of a new anticancer therapy, withdrawal of consent or physician's decision. For concomitant therapy, part A, Compound A was administered at 15 mg or 30 mg QD Days 1-4 (weeks 1,5), TMZ was administered at 75 mg/m^2/day QD, and RT was administered at 2 Gy QD×5 days/week, for 42 days. This was then followed by a break in treatment therapy, e.g., from 1 to up to 4 weeks. Thereafter, adjuvant therapy was initiated by administering Compound A at 30 mg or 45 mg and TMZ at 150 or 200 mg/m^2 QD Days 1-5 of a 28-day cycle. Adjuvant therapy cycles were repeated from 2 to 6 times. After adjuvant therapy, was a monotherapy treatment. Monotherapy comprised administering Compound A at 45 mg 4 days on/24 days off.
For Part A, eighteen patients were enrolled in the adjuvant cohort and received adjuvant Compound A 15 mg/day (n=5), 30 mg/day (n=6), or 45 mg/day (n=7) 4 days on/24 days off plus TMZ followed by Compound A monotherapy 45 mg/day 4 days on/24 days off. Fourteen patients were enrolled in the concomitant cohort and received concomitant Compound A 15 mg/day (n=6) or 30 mg/day (n=8) 4 days on/24 days off in combination with TMZ and RT, followed by adjuvant Compound A 30 mg/day 4 days on/24 days off and Compound A monotherapy 45 mg/day 4 days on/24 days off. The demographics and characteristics of treated patients are described in the below table.

## Cn1cc(-c2cc(S(C)(=O)=O)ccc2OCC2CC2)c2ccccc2c1=O [Compound A, 4-[2-(cyclopropylmethoxy)-5-methylsulfonylphenyl]-2-methylisoquinolin-1-one]
[1]; 72-96 hours following first dose
  Blood HEXIM1 mRNA change: increased
[1]; group P=0.00093
  HEXIM1 mRNA increased in resected brain tumor tissue versus archival tissue, patients: 15 of 18
[1]; tumor
  Tumor HEXIM1 RNA increased, patients: 10 of 11
[2]; Part A adjuvant cohort
  patients with Grade 3/4 TRAEs: 56%
  patients with TEAEs leading to treatment discontinuation: 11%
  patients with any-grade gastrointestinal TRAEs: 78%
  patients with grade 3/4 diarrhea: one
  patients with thrombocytopenia TRAE, any grade: 72%
  patients with thrombocytopenia TRAE, grade 3/4: 50%
[2]; Part A adjuvant cohort (Compound A + TMZ)
  patients with any-grade TRAEs: 94%
[2]; Part A concomitant cohort
  patients with Grade 3/4 TRAEs: 64%
  patients with TEAEs leading to treatment discontinuation: 7%
  patients with gastrointestinal TRAEs: 93%
  patients with grade 3/4 TRAE of diarrhea: 7%
  patients with nausea, any-grade TRAE: 79%
  patients with thrombocytopenia, any grade: 71%
  patients with thrombocytopenia, grade 3/4: 50%
[2]; Part A concomitant cohort (Compound A + TMZ + RT)
  patients with any-grade TRAEs: 100%
[2]; Part A, both cohorts
  treatment-related deaths: no treatment-related deaths
[2]; Part B
  patients with Grade 3/4 TRAEs related to Compound A: 29%
  patients with Grade 3/4 neutropenia related to Compound A: 18%
  patients with Grade 3/4 thrombocytopenia related to Compound A: 18%
[2]; Part B arm A
  patients with TRAE leading to treatment discontinuation: 4%
  patients with TRAEs related to Compound A: 86%
  patients with diarrhea related to Compound A: 43%
  patients with nausea related to Compound A: 46%
  patients with thrombocytopenia related to Compound A: 46%
[2]; adjuvant Compound A plus TMZ and concomitant Compound A plus TMZ and RT
  tolerability in long-term follow-up: well tolerated
Newly diagnosed GBM; adjuvant cohort
  best overall response: CR: 6%
  best overall response: NE: 6%
  best overall response: PD: 11%
  best overall response: SD: 78%
Newly diagnosed GBM; adjuvant cohort, 95% CI 3.9-NE
  median PFS: 7.7 months
Newly diagnosed GBM; adjuvant cohort, 95% CI 31.1-77.3
  progression-free survival (PFS) rate at 6 months: 57.8%
Newly diagnosed GBM; concomitant cohort
  best overall response: CR: 7%
  best overall response: NE: 7%
  best overall response: PD: 7%
  best overall response: SD: 79%
Newly diagnosed GBM; concomitant cohort, 95% CI 5.2-14.0
  median PFS: 12.3 months
Newly diagnosed GBM; concomitant cohort, 95% CI 37.3-87.2
  PFS rate at 6 months: 69.2%
